Patent US8895474B2, “Herbicidally active cyclopentanediones and derivatives thereof, and their use in controlling weeds” (Syngenta Limited, priority 2009, dated 2014)

How the values were obtained:
Format in all cases: in vivo
Conditions in all cases: 312 h, rate 250 g/ha, evaluated after 13 days, 100=total damage to plant, 0=no damage to plant
[1] = test system: Alopecurus myosuroides (ALOMY); test: Pre-emergence herbicidal activity, glasshouse pot test
Experimental: (§1) Seeds of a variety of test species were sown in standard soil in pots. After cultivation for one day (pre-emergence) or after 8 days cultivation (post-emergence) under controlled conditions in a glasshouse (at 24/16° C., day/night; 14 hours light; 65% humidity), the plants were sprayed with an aqueous spray solution derived from the formulation of the technical active ingredient in acetone/water (50:50) solution containing 0.5% Tween 20 (polyoxyethelyene sorbitan monolaurate, CAS RN 9005-64-5). The test plants were then grown in a glasshouse under controlled conditions in a glasshouse (at 24/16° C., day/night; 14 hours light; 65% humidity) and watered twice daily. After 13 days for pre and post-emergence, the test was evaluated (100=total damage to plant; 0=no damage to plant). Test Plants: Lolium perenne (LOLPE), Alopecurus myosuroides (ALOMY), Echinochloa crus-galli (ECHCG), and Avena fatua (AVEFA). Pre-Emergence Activity

Avena fatua (AVEFA) [2] = test: as above
Experimental: as §1

[3] = test system: Echinochloa crus-galli (ECHCG); test: as above
Experimental: as §1

Lolium perenne (LOLPE) [4] = test: as above
Experimental: as §1

[5] = test system: Alopecurus myosuroides (ALOMY); test: Post-emergence herbicidal activity, glasshouse pot test
Experimental: as §1, with “Post-Emergence” for “Pre-Emergence”

Avena fatua (AVEFA) [6] = test: as above
Experimental: as §1, with “Post-Emergence” for “Pre-Emergence”

[7] = test system: Echinochloa crus-galli (ECHCG); test: as above
Experimental: as §1, with “Post-Emergence” for “Pre-Emergence”

Lolium perenne (LOLPE) [8] = test: as above
Experimental: as §1, with “Post-Emergence” for “Pre-Emergence”

SMILES | pest or weed control at 250 g/ha [1] [%] | pest or weed control at 250 g/ha (Avena fatua (AVEFA) [2]) [%] | pest or weed control at 250 g/ha [3] [%] | pest or weed control at 250 g/ha (Lolium perenne (LOLPE) [4]) [%] | pest or weed control at 250 g/ha [5] [%] | pest or weed control at 250 g/ha (Avena fatua (AVEFA) [6]) [%] | pest or weed control at 250 g/ha [7] [%] | pest or weed control at 250 g/ha (Lolium perenne (LOLPE) [8]) [%]
CCc1ccc(Oc2ccc3cc(Cl)ccc3n2)cc1C1=C(O)CCC1=O [Compound A-43] | 40 | 10 | 60 | 50 | 60 | 30 | 100 | 30
CCc1ccc(Oc2ccc(Cl)cc2Cl)cc1C1=C(O)[C@H]2[C@@H](C1=O)[C@@H]1CC[C@H]2O1 [Compound A-44] | 80 | 80 | 80 | 90 | 80 | 80 | 80 | 90
CCc1ccc(Oc2ccc(Cl)c(F)c2)cc1C1=C(O)[C@H]2[C@@H](C1=O)[C@@H]1CC[C@H]2O1 [Compound A-45] | 90 | 90 | 100 | 90 | 90 | 90 | 100 | 90
CCc1ccc(Oc2ccc(F)cc2)cc1C1=C(O)[C@H]2[C@@H](C1=O)[C@@H]1CC[C@H]2O1 [Compound A-46] | 80 | 60 | 100 | 80 | 80 | 60 | 100 | 80
CCc1ccc(Oc2cccc(Br)c2)cc1C1=C(O)[C@H]2[C@@H](C1=O)[C@@H]1CC[C@H]2O1 [Compound A-47] | 60 | 30 | 90 | 70 | 60 | 30 | 90 | 70
CCc1ccc(Oc2ccc(Br)c(Cl)c2)cc1C1=C(O)[C@H]2[C@@H](C1=O)[C@@H]1CC[C@H]2O1 [Compound A-48] | 80 | 80 | 90 | 80 | 80 | 80 | 90 | 80
CCc1ccc(Oc2ccc(F)c(Cl)c2)cc1C1=C(O)[C@H]2[C@@H](C1=O)[C@@H]1CC[C@H]2O1 [Compound A-49] | 90 | 90 | 100 | 100 | 90 | 90 | 100 | 100
CCc1ccc(Oc2ccc(OC(F)(F)F)cc2)cc1C1=C(O)[C@H]2[C@@H](C1=O)[C@@H]1CC[C@H]2O1 [Compound A-50] | 100 | 100 | 100 | 100 | 100 | 100 | 100 | 100
CCc1ccc(Oc2cnc3cc(Cl)ccc3n2)cc1C1=C(O)[C@H]2[C@@H](C1=O)[C@@H]1CC[C@H]2O1 [Compound A-51] | 100 | 90 | 90 | 100 | 100 | 90 | 90 | 100
O=C1CCC(O)=C1c1cc(Oc2ccc(Cl)cc2)ccc1OC(F)(F)F [Compound A-52, 2-[5-(4-chlorophenoxy)-2-trifluoromethoxyphenyl]cyclopentane-1,3-dione] | 0 | 0 | 0 | 0 | 0 | 0 | 50 | 0
CCc1ccc(Oc2ccc3cc(Cl)ccc3n2)cc1C1=C(O)C2C3CCC(CC3)C2C1=O (stereo not shown) [Compound A-53] | 80 | 0 | 100 | 80 | 80 | 80 | 90 | 90
O=C1CCC(O)=C1c1cc(Oc2ccc(Cl)cc2)ccc1C1CC1 [Compound A-54, 2-[5-(4-chlorophenoxy)-2-cyclopropylphenyl]cyclopentane-1,3-dione] | 0 | 0 | 0 | 0 | 0 | 10 | 80 | 0
CCc1ccc(Oc2ccc(C#N)c(Cl)c2)cc1C1=C(O)CCC1=O [Compound A-56] | 30 | 20 | 60 | 50 | 20 | 0 | 70 | 20
CCc1ccc(Oc2ccc(C(F)(F)F)cn2)cc1C1=C(O)CCC1=O [Compound A-60] | 80 | 70 | 100 | 80 | 90 | 80 | 100 | 80
CCc1ccc(Oc2cnc3ccccc3n2)cc1C1=C(O)CCC1=O [Compound A-67] | 60 | 40 | 100 | 100 | 70 | 20 | 100 | 80
CCc1ccc(Oc2ccc(C(F)(F)F)c(C#N)c2)cc1C1=C(O)CCC1=O [Compound A-70] | 0 | 10 | 60 | 20 | 0 | 0 | 60 | 10
CCc1ccc(Oc2ncc(C(F)(F)F)cc2C(F)(F)F)cc1C1=C(O)CCC1=O [Compound A-71] | 90 | 80 | 100 | 100 | 100 | 100 | 100 | 100
CCc1ccc(Oc2ncc(Br)cn2)cc1C1=C(O)CCC1=O [Compound A-72] | 40 | 30 | 100 | 70 | 50 | 30 | 100 | 30
CCc1ccc(Oc2nc3ccc(OC)cc3s2)cc1C1=C(O)CCC1=O [Compound A-75] | 30 | 20 | 100 | 80 | 10 | 0 | 40 | 20
CCc1ccc(Oc2ccc(C(F)(F)F)cc2[N+](=O)[O-])cc1C1=C(O)CCC1=O [Compound A-76] | 20 | 0 | 100 | 50 | 50 | 80 | 80 | 30
